Where two headings read alike, the source gives them in different places. Bounds are passed on as bounds.

What all share (type): cell-based
Assay [1] has as its system P388 cells (mouse lymphoma). As to the kind of experiment: Alamar Blue cytotoxicity / anti-proliferation assay, P388. The settings on record: triplicate, read-out: Anti-proliferation activities (IC50) P388. How it is done: (§1) The assay was implemented according to the published protocols. In brief, the Alamar Blue assay was performed for compounds 2–19 by treating them with P388, DLD-1, HuCC-T1, and CCD966SK cancer cells, which were commercially available from the American Type Culture Collection (ATCC). The test was performed in triplicate, and doxorubicin was used as a positive control.
A general note: Alamar Blue is a resazurin reagent that responds to reducing activity.

The subject of assay [2] is DLD-1 cells (human colorectal adenocarcinoma). As to the kind of experiment: Alamar Blue cytotoxicity / anti-proliferation assay, DLD-1. The settings on record: triplicate, read-out: Anti-proliferation activities (IC50) DLD-1. How it is done:
as §1

In assay [3] the test system is HuCCT-1 cells (human intrahepatic cholangiocarcinoma). As to the kind of experiment: Alamar Blue cytotoxicity / anti-proliferation assay, HuCCT-1. The settings on record: triplicate, read-out: Anti-proliferation activities (IC50) HuCCT-1. How it is done:
as §1

Assay [4] deals with CCD966SK cells (human skin fibroblast). As to the kind of experiment: Alamar Blue cytotoxicity / anti-proliferation assay, CCD966SK. The settings on record: triplicate, read-out: Anti-proliferation activities (IC50) CCD966SK. How it is done: as §1
Where [5] appears, read: Mus musculus, P388, P388 mouse lymphoma.
[6] abbreviates: Homo sapiens, DLD-1, DLD-1 human colorectal adenocarcinoma.
Setting [7] is: Homo sapiens, HuCCT-1, HuCCT-1 human intrahepatic cholangiocarcinoma.
Setting [8] is: DLD-1 human colorectal adenocarcinoma.
The mark [9] stands for this setting: HuCCT-1 human intrahepatic cholangiocarcinoma.

For `CC(C)C1(O)C=CC(C)(O)CCC(O)C2(C)CCC=C(CC1)C(=O)O2` (stereo not drawn) [Compound 2, Cinerenolide B], the IC50 in assay [1] (setting [5]) was above 30 µM; in assay [2] (setting [6]), above 30 µM; in assay [3] (setting [7]) it was above 30 µM; in assay [4] (Homo sapiens, Skin fibroblast), above 30 µM.

In the case of `CC(C)C1(O)C=CC(C)(O)CCC(O)C2(C)CCC=C(CC1)C(=O)O2` (stereo not drawn) [Compound 3, Cinerenolide C], the IC50 in assay [1] (P388 mouse lymphoma), in assay [2] (setting [8]), in assay [3] (setting [9]) and in assay [4] was above 30 µM throughout.

As to `C=C1CC[C@H]2O[C@]2(C)CCC2=C(C)CO[C@H]2/C=C(\C)CC[C@@H]1OC(C)=O` [Compound 4, sarcophytonoxide E], the IC50 in assay [1] (setting [5]) is above 30 µM; in assay [2] (setting [6]), above 30 µM; in assay [3] (setting [7]), above 30 µM; in assay [4] (Homo sapiens, Skin fibroblast), above 30 µM.

For `CC1=C2CC[C@@]3(C)O[C@@H]3CC[C@@](C)(OO)/C=C/C/C(C)=C/[C@@H]2OC1=O` [Compound 5, sarcomililatin A], the IC50 was 15.2 ± 3.2 µM in assay [1] (setting [5]); above 30 µM in assay [2] (setting [6]); above 30 µM in assay [3] (setting [7]); above 30 µM in assay [4] (Homo sapiens, Skin fibroblast).

As to `C=C1CC[C@H]2O[C@]2(C)CCC2=C(C)C(=O)O[C@H]2/C=C(\C)CC[C@H]1OO` [Compound 6, sarcomililatin B], the IC50 is 11.8 ± 4.6 µM in assay [1] (setting [5]); above 30 µM in assay [2] (setting [6]); above 30 µM in assay [3] (setting [7]); above 30 µM in assay [4] (Homo sapiens, Skin fibroblast).

With `CC1=CCCC2(C)OC2CCC(C)=CC=C(C(C)(C)O)CC1` (stereo not drawn) [Compound 7, 2-[(E,E,E)-7′,8′-epoxy-4′,8′,12′-trimethylcyclotetradeca-1′,3′,11′-trienyl]propan-2-ol], the IC50 in assay [1] (setting [5]) is above 30 µM; in assay [2] (setting [6]), above 30 µM; in assay [3] (setting [7]), above 30 µM; in assay [4] (Homo sapiens, Skin fibroblast), above 30 µM.

Regarding `C/C1=C\[C@H](O)CC2=C[C@@H](OC2=O)[C@H](C(C)C)CC/C(C)=C/CC1` [Compound 8, sarcophytonolide F], the IC50 was above 30 µM in assay [1] (setting [5]); above 30 µM in assay [2] (setting [6]); above 30 µM in assay [3] (setting [7]); above 30 µM in assay [4] (Homo sapiens, Skin fibroblast).

On to `CC1=C2CC[C@@]3(C)O[C@@H]3CC/C(C)=C/CC[C@@](C)(O)/C=C/2OC1=O` [Compound 9, cherbonolide L], for which the IC50 in assay [1] (setting [5]) is above 30 µM; in assay [2] (setting [6]), above 30 µM; in assay [3] (setting [7]) it was above 30 µM; in assay [4] (Homo sapiens, Skin fibroblast), above 30 µM.

In the case of `CC1=C2CC[C@@]3(C)O[C@@H]3CC/C(C)=C/CC/C(C)=C/[C@@H]2OC1=O` [Compound 10, (+)-(2S)-isosarcophine], the IC50 is above 30 µM in assay [1] (setting [5]); above 30 µM in assay [2] (setting [6]); above 30 µM in assay [3] (setting [7]); above 30 µM in assay [4] (Homo sapiens, Skin fibroblast).

Regarding `CC1=C2CC[C@@]3(C)O[C@@H]3CC/C(C)=C/CC/C(C)=C/[C@H]2OC1=O` [Compound 11, (–)-(2R)-isosarcophine], the IC50 was above 30 µM in assay [1] (setting [5]); above 30 µM in assay [2] (setting [6]); above 30 µM in assay [3] (setting [7]); above 30 µM in assay [4] (Homo sapiens, Skin fibroblast).

For `CC(=O)O[C@H]1/C=C(\C)CC[C@H]2O[C@]2(C)CCC2=C(C)CO[C@H]2/C=C(\C)C1` [Compound 12, sarcophytonoxide A], the IC50 in assay [1] (setting [5]) is above 30 µM; in assay [2] (setting [6]), above 30 µM; in assay [3] (setting [7]), above 30 µM; in assay [4] (Homo sapiens, Skin fibroblast), above 30 µM.

Turning to `CC(C)/C1=C/[C@@H](O)[C@]2(C)O[C@@H]2C[C@@H](O)[C@@]2(C)CCC=C(CC1)C(=O)O2` [Compound 13, sartrolide C], the IC50 was above 30 µM in assay [1] (setting [5]); above 30 µM in assay [2] (setting [6]); above 30 µM in assay [3] (setting [7]); above 30 µM in assay [4] (Homo sapiens, Skin fibroblast).

Consider `COC(=O)/C1=C\C=C(\C(C)C)CCC2=CCC[C@](C)(OC2=O)C(=O)CC1` [Compound 14, ketoemblide], for which the IC50 in assay [1] (setting [5]) was above 30 µM; in assay [2] (setting [6]) it was above 30 µM; in assay [3] (setting [7]), above 30 µM; in assay [4] (Homo sapiens, Skin fibroblast), above 30 µM.

`CC(=O)OC1CC(C)=CCCC(C)=CC(=O)CC23C(=O)OC(C1C(C)C)C2CC(C)=C1CCC2=CCCC(C)(OC2=O)C(O)CCC(C)=CC13` (stereo not drawn) [Compound 16, glaucumolide A]: the IC50 in assay [1] (P388 mouse lymphoma) is 16.7 ± 5.8 µM; in assay [2] (setting [8]) it was above 30 µM; in assay [3] (setting [9]), 19.1 ± 6.4 µM; in assay [4] (Homo sapiens, Skin fibroblast), 21.3 ± 5.8 µM.

With `CC(=O)OC1CC(C)=CCCC(C)=CC(=O)CC23C(=O)OC(C1C(C)C)C2CC(C)=C1CCC2=CCCC(C)(OC2=O)C(O)CCC(C)=CC13` (stereo not drawn) [Compound 17, glaucumolide B], the IC50 in assay [1] (P388 mouse lymphoma) is 22.8 ± 9.7 µM; in assay [2] (setting [8]), above 30 µM; in assay [3] (setting [9]) it was above 30 µM; in assay [4] it was 26.1 ± 10.3 µM.

In the case of `CC(=O)OC1CC(C)=CCCC(C)=CC(=O)CC23C(=O)OC(C1C(C)C)C2CC(C)=C1CCC2=CCCC(C)(OC2=O)C(O)CCC(C)=CC13` (stereo not drawn) [Compound 18, bistrochelide A], the IC50 in assay [1] (P388 mouse lymphoma) came to 10.6 ± 1.9 µM; in assay [2] (setting [8]), 9.9 ± 1 µM; in assay [3] (setting [9]), 2 ± 0.1 µM; in assay [4] it was 18.8 ± 6.9 µM.

For the compound `COc1cccc2c1C(=O)c1c(O)c3c(c(O)c1C2=O)C[C@@](O)(C(=O)CO)C[C@@H]3O[C@H]1C[C@H](N)[C@H](O)[C@H](C)O1` [Doxorubicin, doxorubicin, reference compound], the IC50 in assay [1] (setting [5]) turned out to be 0.69 ± 0.01 µM; in assay [2] (setting [6]) it was 4.1 ± 0.7 µM; in assay [3] (setting [7]), 1.9 ± 0.1 µM; in assay [4] (Homo sapiens, Skin fibroblast) it was 2.9 ± 0.4 µM.

As for isosarcophytonolide D [Compound 15], the IC50 in assay [1] (P388 mouse lymphoma) was above 30 µM; in assay [2] (setting [8]), above 30 µM; in assay [3] (setting [9]) it was above 30 µM; in assay [4] it was 27.6 ± 7.8 µM.
